Assays:
Assay type in all cases: in vivo
[1] = tested on: barnyardgrass (Echinochloa crus-galli); assay: Test A pre-/postemergence: barnyardgrass; settings: for Barnyardgrass plant response rating: Postemergence; for Plant response rating, Barnyardgrass: Preemergence
Method in brief: (§1)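 Pre: directed soil spray after planting in loam + sand. Post: same formulation (non-phytotoxic solvent + surfactant) on 1–2-leaf plants, 2–10 cm. Greenhouse ~10 d; visual injury 0–100 vs untreated.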

[2] = tested on: wheat (Triticum aestivum); assay: Test A pre-/postemergence: wheat
Method in brief: as §1

[3] = tested on: barnyardgrass (Echinochloa crus-galli); assay: Test B flooded paddy: barnyardgrass; settings: Flood; 250 g ai/ha; applied to paddy water at 2-leaf stage; visually evaluated after 13 to 15 days
Method in brief: (§2)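 Paddy-water application: seedlings at 2-leaf stage, flood depth 3 cm maintained for the test duration. Evaluation after 13–15 days in the greenhouse by eye relative to controls; 0–100 scale.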

[4] = tested on: rice (Oryza sativa); assay: Test B flooded paddy: rice; settings: Flood; 250 g ai/ha; applied to paddy water at 2-leaf stage; visually evaluated after 13 to 15 days
Method in brief: as §2

[5] = tested on: lambsquarters (Chenopodium album); assay: Test C pre-/postemergence: lambsquarters
Method in brief: (§3)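 Preemergence on seeds in loam/sand, postemergence on 2–18 cm (1–4-leaf) plants in peat-based medium; compounds in non-phytotoxic solvent with surfactant. After 13–15 days in greenhouse, visual rating versus controls, 0 (no effect) to 100 (complete control).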

[6] = tested on: pigweed (Amaranthus retroflexus); assay: Test C pre-/postemergence: pigweed
Method in brief: as §3

[7] = tested on: pigweed (Amaranthus retroflexus); assay: Test A pre-/postemergence: pigweed
Method in brief: as §1

[8] = tested on: winter wheat (Triticum aestivum); assay: Test C pre-/postemergence: winter wheat
Method in brief: as §3

[9] = tested on: ryegrass, Italian (Italian ryegrass, Lolium multiflorum); assay: Test C pre-/postemergence: ryegrass, Italian
Method in brief: as §3

[10] = tested on: soybean (Glycine max); assay: Test C pre-/postemergence: soybean
Method in brief: as §3

[11] = tested on: sedge, umbrella (small-flower umbrella sedge Cyperus difformis); assay: Test B flooded paddy: sedge, umbrella; settings: Flood; 250 g ai/ha; applied to paddy water at 2-leaf stage; visually evaluated after 13 to 15 days
Method in brief: as §2

[12] = 125 g ai/ha, 0 to 100 scale, 0 is no effect, 100 is complete control
[13] = 500 g ai/ha, visual rating on 0 to 100 scale (0 no effect, 100 complete control), approximately ten days
[14] = Postemergence, 125 g ai/ha, 0 to 100 scale, 0 is no effect, 100 is complete control
[15] = Postemergence, 500 g ai/ha, visual rating on 0 to 100 scale (0 no effect, 100 complete control), approximately ten days
[16] = Preemergence, 125 g ai/ha, 0 to 100 scale where 0 is no effect and 100 is complete control
[17] = Preemergence, 500 g ai/ha, 0 to 100 scale (0 no effect, 100 complete control)
[18] = Postemergence, 31 g ai/ha, scale 0 to 100 (0 no effect, 100 complete control)
[19] = Postemergence, 62 g ai/ha, scale 0 to 100 (0 no effect, 100 complete control)
[20] = Postemergence, 125 g ai/ha, scale 0 to 100, 0 no effect, 100 complete control
[21] = Postemergence, 250 g ai/ha, scale 0 to 100
[22] = Preemergence, 125 g ai/ha, 0 to 100 scale (0 no effect, 100 complete control)
[23] = Preemergence, 500 g ai/ha, 0 to 100 scale, 0 is no effect, 100 is complete control
[24] = Preemergence, 31 g ai/ha, scale of 0 to 100, 0 is no effect, 100 is complete control
[25] = Preemergence, 62 g ai/ha, scale of 0 to 100, 0 is no effect, 100 is complete control
[26] = Preemergence, 125 g ai/ha, scale 0 to 100, 0 no effect, 100 complete control
[27] = Preemergence, 250 g ai/ha, scale 0 to 100, 0 no effect, 100 complete control

Cc1nn(-c2ccnc(Cl)c2)nc1Cc1ccnc(C(F)(F)F)c1 [Compound 141]
Barnyardgrass plant response rating [1, 12]: 80
Barnyardgrass plant response rating [1, 13]: 90
Plant response rating, Barnyardgrass ([1]; 125 g ai/ha, 0 to 100 scale where 0 is no effect and 100 is complete control): 40
Plant response rating, Barnyardgrass ([1]; 500 g ai/ha, 0 to 100 scale (0 no effect, 100 complete control)): 100
Plant response rating, Wheat [2, 14]: 20
Wheat plant response rating [2, 15]: 50
Plant response rating, Wheat [2, 16]: 0
Plant response rating, Wheat [2, 17]: 20
Plant response rating, Barnyardgrass (0 to 100 scale, 0 is no effect, 100 is complete control) [3]: 20
Plant response rating, Rice (0 to 100 scale, 0 is no effect, 100 is complete control) [4]: 35
Plant response rating, Lambsquarters [5, 18]: 98
Plant response rating, Lambsquarters [5, 19]: 98
Plant response rating, Lambsquarters [5, 20]: 98
Plant response rating, Lambsquarters [5, 21]: 98
Plant response rating, Pigweed [6, 18]: 95
Plant response rating, Pigweed [6, 19]: 95
Plant response rating, Pigweed [6, 20]: 98
Plant response rating, Pigweed [6, 21]: 98
Plant response rating, Pigweed [7, 14]: 100
Pigweed plant response rating [7, 15]: 100
Plant response rating, Pigweed [7, 16]: 100
Plant response rating, Pigweed [7, 17]: 100
Plant response rating, Wheat [8, 18]: 10
Plant response rating, Wheat [8, 19]: 15
Plant response rating, Wheat [8, 20]: 20
Plant response rating, Wheat [8, 21]: 20
Plant response rating, Ryegrass, Italian [9, 18]: 15
Plant response rating, Ryegrass, Italian [9, 19]: 30
Plant response rating, Ryegrass, Italian [9, 20]: 50
Plant response rating, Ryegrass, Italian [9, 21]: 70
Plant response rating, Soybean [10, 18]: 40
Plant response rating, Soybean [10, 19]: 55
Plant response rating, Soybean [10, 20]: 55
Plant response rating, Soybean [10, 21]: 65
Plant response rating, Sedge, Umbrella (0 to 100 scale, 0 is no effect, 100 is complete control) [11]: 85

Fc1ccc(-n2nc(Cc3ccnc(C(F)(F)F)c3)c(OC(F)F)n2)cc1 [Compound 25]
Barnyardgrass plant response rating [1, 12]: 50
Barnyardgrass plant response rating [1, 13]: 90
Plant response rating, Barnyardgrass ([1]; 125 g ai/ha, 0 to 100 scale (0 no effect, 100 complete control)): 80
Plant response rating, Barnyardgrass ([1]; 500 g ai/ha, 0 to 100 scale, 0 is no effect, 100 is complete control): 90
Wheat plant response rating [2, 14]: 40
Wheat plant response rating [2, 15]: 60
Plant response rating, Wheat [2, 22]: 20
Plant response rating, Wheat [2, 23]: 80
Plant response rating, Barnyardgrass (0 to 100 scale, 0 is no effect, 100 is complete control) [3]: 30
Plant response rating, Rice (0 to 100 scale, 0 is no effect, 100 is complete control) [4]: 35
Plant response rating, Lambsquarters [5, 18]: 70
Plant response rating, Lambsquarters [5, 19]: 80
Plant response rating, Lambsquarters [5, 20]: 98
Plant response rating, Lambsquarters [5, 21]: 98
Plant response rating, Lambsquarters [5, 24]: 90
Plant response rating, Lambsquarters [5, 25]: 90
Plant response rating, Lambsquarters [5, 26]: 98
Plant response rating, Lambsquarters [5, 27]: 98
Plant response rating, Pigweed [6, 18]: 85
Plant response rating, Pigweed [6, 19]: 95
Plant response rating, Pigweed [6, 20]: 95
Plant response rating, Pigweed [6, 21]: 98
Plant response rating, Pigweed [6, 24]: 100
Plant response rating, Pigweed [6, 25]: 100
Plant response rating, Pigweed [6, 26]: 100
Plant response rating, Pigweed [6, 27]: 100
Pigweed plant response rating [7, 14]: 100
Pigweed plant response rating [7, 15]: 100
Plant response rating, Pigweed [7, 22]: 100
Plant response rating, Pigweed [7, 23]: 100
Plant response rating, Wheat [8, 18]: 10
Plant response rating, Wheat [8, 19]: 20
Plant response rating, Wheat [8, 20]: 30
Plant response rating, Wheat [8, 21]: 30
Plant response rating, Wheat [8, 24]: 0
Plant response rating, Wheat [8, 25]: 5
Plant response rating, Wheat [8, 26]: 10
Plant response rating, Wheat [8, 27]: 35
Plant response rating, Ryegrass, Italian [9, 18]: 5
Plant response rating, Ryegrass, Italian [9, 19]: 5
Plant response rating, Ryegrass, Italian [9, 20]: 5
Plant response rating, Ryegrass, Italian [9, 21]: 5
Plant response rating, Ryegrass, Italian [9, 24]: 5
Plant response rating, Ryegrass, Italian [9, 25]: 35
Plant response rating, Ryegrass, Italian [9, 26]: 45
Plant response rating, Ryegrass, Italian [9, 27]: 90
Plant response rating, Soybean [10, 18]: 25
Plant response rating, Soybean [10, 19]: 30
Plant response rating, Soybean [10, 20]: 30
Plant response rating, Soybean [10, 21]: 30
Plant response rating, Soybean [10, 24]: 0
Plant response rating, Soybean [10, 25]: 0
Plant response rating, Soybean [10, 26]: 0
Plant response rating, Soybean [10, 27]: 10
Plant response rating, Sedge, Umbrella (0 to 100 scale, 0 is no effect, 100 is complete control) [11]: 95
